The values below come from US10800791B2, “Triazole ACC inhibitors and uses thereof” (Gilead Apollo, LLC, priority 2015, dated 2020).

One assay concerns C. albicans. Briefly: Antifungal Activity Assay (broth microtiter MIC), C. albicans. The assay is classed as cell-based, Candida albicans. The following applies: Candida albicans, ATCC90028, 48 h. The procedure, abridged:
(§1)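 Colonies from 24 h Sabouraud dextrose agar plates (35° C) are suspended in RPMI 1640+MOPS and diluted to give 2.5×10^3 CFU/mL in the wells. Plates are set up per CLSI M27-A3. Visual MIC is recorded at 48 h.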

For a further assay, the system named is Botrtyis cinerea (Bc). Briefly: Growth inhibition assay of fungal pathogens, Bc. It is filed as cell-based. The following applies: 48 h. Put shortly: (§2)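 Inhibition percentages reflect 48 h OD600 and visual scores relative to a 2% DMSO control. Test concentrations were 50, 10, 2 ppm or 2, 0.4, 0.08 ppm final, applied to spores in 17% V8 medium.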
In another assay the target is human (hACC2) (Homo sapiens, UniProt O00763). Briefly: In vitro ACC inhibition assay (ADP-Glo), hACC2. The assay is classed as biochemical. The following applies: 5 nM ACC2, 20 μM ATP, 20 μM acetyl-CoA. As to the method: The detailed procedure is as follows. […] 10 μL ADP glo reagent was added. […] 20 μL kinase detection reagent was added.
On the technique in general: ADP-Glo first removes unused ATP, then detects ADP through luciferase.

In another assay the test system is Diplodia maydis (Dm). Briefly: Growth inhibition assay of fungal pathogens, Dm. It is filed as cell-based. The following applies: Stenocarpella maydis, 48 h. Put shortly: as §2
Assay [1] deals with Collectotrichum graminicola (Cg). In words: Growth inhibition assay of fungal pathogens, Cg. As to conditions: 48 h. The assay is classed as cell-based. The procedure, abridged:
as §2

The test system of assay [2] is Phytophthora capsici (Pc). Briefly: Growth inhibition assay of fungal pathogens, Pc. As to conditions: 48 h. The assay is classed as cell-based. Put shortly: as §2
The test system of the next assay is C. parapsilosis. In words: Antifungal Activity Assay (broth microtiter MIC), C. parapsilosis. The assay is classed as cell-based, Candida parapsilosis. The following applies: Lodderomyces parapsilosis, ATCC22019, 48 h. The procedure, abridged: as §1
Another assay deals with Septoria tritici (St). Briefly: Growth inhibition assay of fungal pathogens, St. The assay is classed as cell-based. As to conditions: Zymoseptoria tritici, 48 h. Put shortly:
as §2

The test system of a further assay is Rhizoctonia solani (Rs). Briefly: Growth inhibition assay of fungal pathogens, Rs. It is filed as cell-based. As to conditions: 48 h.
The target of a further assay is fungal (fACC2) (UniProt Q00955). As to conditions: read-out: fACC2 (in vitro ACC2 Inhibition Assay, IC50), ADP-Glo, 5 nM ACC2, 20 μM ATP, 20 μM acetyl-CoA.
Where [3] appears, read: Table 3a, ATCC 90028, 3 replicates, MIC recorded at 48 h, read-out: MIC, C. albicans ATCC 90028.
The mark [4] stands for this setting: Table 3b (additional results), ATCC 90028, 3 replicates, MIC recorded at 48 h, read-out: MIC, C. albicans ATCC 90028.
The mark [5] stands for this setting: Botrtyis cinerea, growth inhibition at 48 hours vs 2% DMSO control, read-out: Concentration at 90% Inhibition Bc.
Where [6] appears, read: Botrtyis cinerea, growth inhibition vs 2% DMSO control at 48 hours, read-out: Concentration at 90% Inhibition Bc.
The mark [7] stands for this setting: Diplodia maydis, growth inhibition at 48 hours vs 2% DMSO control, read-out: Concentration at 90% Inhibition Dm.
Where [8] appears, read: Diplodia maydis, growth inhibition vs 2% DMSO control at 48 hours, read-out: Concentration at 90% Inhibition Dm.
[9] abbreviates: Collectotrichum graminicola, growth inhibition at 48 hours vs 2% DMSO control, read-out: Concentration at 90% Inhibition Cg.
The mark [10] stands for this setting: Collectotrichum graminicola, growth inhibition vs 2% DMSO control at 48 hours, read-out: Concentration at 90% Inhibition Cg.
The mark [11] stands for this setting: growth inhibition at 48 hours vs 2% DMSO control, read-out: Concentration at 90% Inhibition Pc.
Setting [12] is: growth inhibition vs 2% DMSO control at 48 hours, read-out: Concentration at 90% Inhibition Pc.
Where [13] appears, read: Table 3a, ATCC 22019, 3 replicates, MIC recorded at 48 h, read-out: MIC, C. parapsilosis ATCC 22019.
The mark [14] stands for this setting: Table 3b (additional results), ATCC 22019, 3 replicates, MIC recorded at 48 h, read-out: MIC, C. parapsilosis ATCC 22019.
The mark [15] stands for this setting: Septoria tritici, growth inhibition at 48 hours vs 2% DMSO control, read-out: Concentration at 90% Inhibition St.
The mark [16] stands for this setting: Septoria tritici, growth inhibition vs 2% DMSO control at 48 hours, read-out: Concentration at 90% Inhibition St.
Setting [17] is: mycelial plugs, growth inhibition at 48 hours vs 2% DMSO control, read-out: Concentration at 90% Inhibition Rs.
[18] abbreviates: mycelial plugs, growth inhibition vs 2% DMSO control at 48 hours, read-out: Concentration at 90% Inhibition Rs.

≈ marks a conversion by molar mass, not a printed value. Where two headings read alike, the source gives them in different places. Some results are limits rather than exact numbers.

Sequence of human (hACC2) (O00763 whole entry): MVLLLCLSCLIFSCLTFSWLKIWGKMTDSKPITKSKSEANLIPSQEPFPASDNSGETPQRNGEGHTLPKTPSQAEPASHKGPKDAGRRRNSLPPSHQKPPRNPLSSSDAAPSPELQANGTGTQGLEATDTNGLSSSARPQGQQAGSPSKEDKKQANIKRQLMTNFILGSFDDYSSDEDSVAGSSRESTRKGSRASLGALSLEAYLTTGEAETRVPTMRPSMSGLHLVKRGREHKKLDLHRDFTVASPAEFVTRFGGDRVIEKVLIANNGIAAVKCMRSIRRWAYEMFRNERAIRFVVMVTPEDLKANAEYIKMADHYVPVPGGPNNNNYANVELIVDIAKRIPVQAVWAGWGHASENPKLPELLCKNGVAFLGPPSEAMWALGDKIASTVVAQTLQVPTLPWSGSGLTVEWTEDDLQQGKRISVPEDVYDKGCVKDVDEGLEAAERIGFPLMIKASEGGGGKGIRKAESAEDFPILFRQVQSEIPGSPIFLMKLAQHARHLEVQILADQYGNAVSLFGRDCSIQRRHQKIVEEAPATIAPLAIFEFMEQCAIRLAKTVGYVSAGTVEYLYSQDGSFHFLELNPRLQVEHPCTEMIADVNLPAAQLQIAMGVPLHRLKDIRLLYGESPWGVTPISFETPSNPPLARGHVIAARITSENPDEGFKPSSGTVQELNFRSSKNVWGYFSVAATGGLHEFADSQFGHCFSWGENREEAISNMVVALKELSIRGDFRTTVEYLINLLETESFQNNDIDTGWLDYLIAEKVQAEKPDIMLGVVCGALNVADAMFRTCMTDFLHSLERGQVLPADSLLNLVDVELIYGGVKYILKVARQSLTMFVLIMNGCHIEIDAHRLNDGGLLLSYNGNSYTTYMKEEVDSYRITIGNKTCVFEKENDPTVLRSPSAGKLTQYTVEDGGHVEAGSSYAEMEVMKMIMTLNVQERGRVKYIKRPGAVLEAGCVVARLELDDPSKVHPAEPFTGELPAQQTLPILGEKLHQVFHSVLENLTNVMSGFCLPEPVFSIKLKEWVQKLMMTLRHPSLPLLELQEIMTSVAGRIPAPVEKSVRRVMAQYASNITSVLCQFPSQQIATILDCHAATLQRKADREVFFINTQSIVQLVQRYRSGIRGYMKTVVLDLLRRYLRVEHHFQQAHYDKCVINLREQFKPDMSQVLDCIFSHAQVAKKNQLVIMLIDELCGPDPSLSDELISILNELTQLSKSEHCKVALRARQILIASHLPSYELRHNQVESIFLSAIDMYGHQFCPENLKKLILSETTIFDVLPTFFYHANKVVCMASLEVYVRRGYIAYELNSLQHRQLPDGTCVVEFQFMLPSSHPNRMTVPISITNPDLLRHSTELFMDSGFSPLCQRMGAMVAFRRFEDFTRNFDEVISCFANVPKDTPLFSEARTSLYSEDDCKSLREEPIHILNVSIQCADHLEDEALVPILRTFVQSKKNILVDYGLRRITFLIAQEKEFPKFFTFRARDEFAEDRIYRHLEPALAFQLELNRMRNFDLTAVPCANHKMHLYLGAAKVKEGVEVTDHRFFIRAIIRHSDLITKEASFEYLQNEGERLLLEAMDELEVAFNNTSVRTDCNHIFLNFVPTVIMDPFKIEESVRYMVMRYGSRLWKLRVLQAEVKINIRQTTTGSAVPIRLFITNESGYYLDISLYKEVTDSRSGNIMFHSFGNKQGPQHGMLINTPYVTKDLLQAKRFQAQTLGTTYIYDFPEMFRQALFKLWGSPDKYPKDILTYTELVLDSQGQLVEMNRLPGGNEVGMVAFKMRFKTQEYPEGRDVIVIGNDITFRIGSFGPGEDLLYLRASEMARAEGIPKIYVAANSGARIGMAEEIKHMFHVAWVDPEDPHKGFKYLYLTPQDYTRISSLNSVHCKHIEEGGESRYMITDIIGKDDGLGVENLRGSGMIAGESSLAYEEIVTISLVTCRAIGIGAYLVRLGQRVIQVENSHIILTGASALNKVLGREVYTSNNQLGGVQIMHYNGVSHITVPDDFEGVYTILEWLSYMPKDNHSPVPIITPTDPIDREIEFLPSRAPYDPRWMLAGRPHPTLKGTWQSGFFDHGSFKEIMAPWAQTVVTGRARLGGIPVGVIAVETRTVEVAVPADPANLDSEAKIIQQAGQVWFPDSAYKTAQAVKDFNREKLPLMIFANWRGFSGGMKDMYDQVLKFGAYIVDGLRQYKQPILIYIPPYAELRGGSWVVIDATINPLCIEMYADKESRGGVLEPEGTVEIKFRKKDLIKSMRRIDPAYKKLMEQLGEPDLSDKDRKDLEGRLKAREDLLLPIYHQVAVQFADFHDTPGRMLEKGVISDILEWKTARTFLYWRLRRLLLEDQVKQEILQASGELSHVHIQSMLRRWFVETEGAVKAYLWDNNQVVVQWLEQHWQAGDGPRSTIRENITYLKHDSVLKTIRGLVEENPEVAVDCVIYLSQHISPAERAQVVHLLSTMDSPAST
Sequence of fungal (fACC2) (Q00955 whole entry): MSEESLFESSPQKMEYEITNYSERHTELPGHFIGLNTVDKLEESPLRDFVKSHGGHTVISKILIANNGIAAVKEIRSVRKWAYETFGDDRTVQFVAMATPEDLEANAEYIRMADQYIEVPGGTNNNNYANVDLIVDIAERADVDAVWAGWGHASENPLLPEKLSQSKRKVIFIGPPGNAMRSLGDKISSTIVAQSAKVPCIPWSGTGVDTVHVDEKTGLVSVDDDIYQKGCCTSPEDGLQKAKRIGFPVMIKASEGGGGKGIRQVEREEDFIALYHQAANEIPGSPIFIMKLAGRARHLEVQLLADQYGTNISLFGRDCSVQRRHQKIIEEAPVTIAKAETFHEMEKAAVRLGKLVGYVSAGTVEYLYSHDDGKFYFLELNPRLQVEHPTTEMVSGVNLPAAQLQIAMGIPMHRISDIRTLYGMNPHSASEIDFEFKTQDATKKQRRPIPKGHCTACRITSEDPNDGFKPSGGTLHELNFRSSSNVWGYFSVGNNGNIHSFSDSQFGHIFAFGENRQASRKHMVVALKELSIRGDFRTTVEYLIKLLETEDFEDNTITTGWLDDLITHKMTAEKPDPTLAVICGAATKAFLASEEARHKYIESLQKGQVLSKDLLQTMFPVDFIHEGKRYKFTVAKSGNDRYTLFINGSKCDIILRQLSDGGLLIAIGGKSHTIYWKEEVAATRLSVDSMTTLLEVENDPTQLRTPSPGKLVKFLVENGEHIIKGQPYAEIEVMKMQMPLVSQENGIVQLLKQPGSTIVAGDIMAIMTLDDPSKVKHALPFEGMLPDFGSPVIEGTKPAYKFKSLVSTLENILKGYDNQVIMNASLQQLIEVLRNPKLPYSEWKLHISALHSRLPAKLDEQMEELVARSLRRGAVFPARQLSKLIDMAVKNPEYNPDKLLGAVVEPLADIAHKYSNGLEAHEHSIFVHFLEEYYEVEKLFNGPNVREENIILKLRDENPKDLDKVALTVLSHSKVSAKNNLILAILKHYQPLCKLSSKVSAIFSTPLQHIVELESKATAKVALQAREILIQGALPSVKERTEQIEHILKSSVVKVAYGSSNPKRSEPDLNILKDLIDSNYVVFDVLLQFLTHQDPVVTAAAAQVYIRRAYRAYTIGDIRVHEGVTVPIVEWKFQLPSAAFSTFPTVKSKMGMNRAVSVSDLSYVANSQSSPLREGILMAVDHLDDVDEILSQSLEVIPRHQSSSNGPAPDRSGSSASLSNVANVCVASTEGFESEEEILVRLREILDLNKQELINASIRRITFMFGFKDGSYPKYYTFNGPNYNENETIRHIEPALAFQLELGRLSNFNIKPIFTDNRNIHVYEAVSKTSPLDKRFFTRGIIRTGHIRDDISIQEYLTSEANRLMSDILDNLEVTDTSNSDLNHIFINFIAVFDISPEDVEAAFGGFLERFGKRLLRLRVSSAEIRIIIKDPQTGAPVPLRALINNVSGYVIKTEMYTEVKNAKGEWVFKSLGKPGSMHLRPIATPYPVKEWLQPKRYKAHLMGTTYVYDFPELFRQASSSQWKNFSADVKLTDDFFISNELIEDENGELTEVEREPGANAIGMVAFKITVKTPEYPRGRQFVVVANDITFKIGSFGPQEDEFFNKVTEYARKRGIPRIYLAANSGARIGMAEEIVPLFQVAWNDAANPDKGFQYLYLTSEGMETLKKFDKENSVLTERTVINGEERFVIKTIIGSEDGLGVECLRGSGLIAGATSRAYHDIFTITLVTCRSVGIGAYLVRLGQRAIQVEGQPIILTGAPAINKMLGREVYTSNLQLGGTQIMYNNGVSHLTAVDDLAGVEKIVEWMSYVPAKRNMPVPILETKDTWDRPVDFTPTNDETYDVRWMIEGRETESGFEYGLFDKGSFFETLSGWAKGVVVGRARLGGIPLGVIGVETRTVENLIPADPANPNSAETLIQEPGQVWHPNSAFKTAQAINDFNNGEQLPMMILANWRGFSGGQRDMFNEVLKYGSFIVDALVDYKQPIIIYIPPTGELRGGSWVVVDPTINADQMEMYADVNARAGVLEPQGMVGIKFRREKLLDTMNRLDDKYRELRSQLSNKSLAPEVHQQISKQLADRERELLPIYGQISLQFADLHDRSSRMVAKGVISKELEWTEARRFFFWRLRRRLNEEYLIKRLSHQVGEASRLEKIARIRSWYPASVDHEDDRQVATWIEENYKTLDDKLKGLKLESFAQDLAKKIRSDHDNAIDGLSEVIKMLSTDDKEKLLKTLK
Description for fungal (fACC2): An exemplary procedure for the in vitro ACC inhibition assay, which can be used to determine the inhibitory action of compounds of the invention toward either human (hACC2) or fungal (fACC2), follows. The ADP-Glo™ Kinase Assay kit from Promega was used. The ADP-Glo™ Kinase Assay is a luminescent ADP detection assay to measure enzymatic activity by quantifying the amount of ADP produced during an enzyme reaction. The assay is performed in two steps; first, after the enzyme reaction, an equal volume of ADP-Glo™ Reagent is added to terminate the reaction and deplete the remaining ATP. Second, the Kinase Detection Reagent is added to simultaneously convert ADP to ATP and allow the newly synthesized ATP to be measured using a luciferase/luciferin reaction. Luminescence can be correlated to ADP concentrations by using an ATP-to-ADP conversion curve. […] 50 μL of the compound being tested (600 μM in DMSO) was added to a 384-well dilution plate. The compound was diluted 1:3 in succession in DMSO for each row for 11 wells. 0.5 μL ACC2 working solution was added to 384-well white Optiplate assay plate. 0.5 μL diluted compound solution in each column from step 2 was added to assay plate, each row containing 2 replicates. […] The plates were incubated at room temperature for 15 minutes. 5 μL substrate working solution was added to each well to initiate reaction. Final ACC2 reaction concentrations consist of: 5 nM ACC2, 20 μM ATP, 20 μM acetyl-CoA, 12 mM NaHCO3, 0.01% Brij35, 2 mM DTT, 5% DMSO, test compound concentrations: 30 μM, 10 μM, 3.33 μM, 1.11 μM, 0.37 μM, 0.123 μM, 0.0411 μM, 0.0137 μM, 0.00457 μM, 0.00152 μM, and 0.00051 μM. Plates were incubated at room temperature for 60 minutes. 10 μL ADP glo reagent was added. Plates were incubated at room temperature for 40 minutes. 20 μL kinase detection reagent was added. Plates were incubated at room temperature for 40 minutes, and then read on a Perkin Elmer EnVision 2104 plate reader for luminescence as Relative Light Units (RLU).
Data for each concentration, as well as the positive and negative controls were averaged, and the standard deviation calculated. Percent inhibition was calculated by the formula: 100×(average negative control−compound)/(average negative control−average positive control). The IC50 for each compound was calculated by fitting the data with a non-linear regression equation: Y=Bottom+(Top−Bottom)/(1+10 ((Log IC50−X)*HillSlope)), where X is the log of compound concentration and Y is percent inhibition.

A word on the MIC: it is the smallest concentration in the dilution series that meets the test's criterion for growth inhibition. Broadly, the IC50 is the concentration at which inhibition is half-maximal. As to `COc1ccc(F)cc1[C@H](Cn1c(=O)n(C(C)(C)C(N)=O)c(=O)c2c(C)c(-n3nccn3)sc21)OC1CCOCC1` [Compound I-1], the MIC in the assay on C. albicans (setting [3]) fell in the range of 0.25 to 1 µg/mL (≈ 0.426 to 1.7 µM); in the assay with C. albicans (setting [4]) it was 0.25 to 1 µg/mL (≈ 0.426 to 1.7 µM); in the assay on C. parapsilosis (setting [13]) it was 1.1 to 2 µg/mL (≈ 1.88 to 3.41 µM); with C. parapsilosis (setting [14]) it was 2.01 to 4 µg/mL (≈ 3.43 to 6.82 µM). Also, the IC90 (with Botrtyis cinerea (Bc) (setting [5]); in the assay with Botrtyis cinerea (Bc) (setting [6]); in the assay on Diplodia maydis (Dm) (setting [7]); in the assay on Diplodia maydis (Dm) (setting [8]); in [1] (setting [9]); in assay [1] (setting [10])) was 2 µg/mL (≈ 3.41 µM) each time. The IC90 in assay [2] (setting [11]) is 10 µg/mL (≈ 17 µM); in assay [2] (setting [12]), > 50 µg/mL; with Septoria tritici (St) (setting [15]), > 50 µg/mL; in the assay on Septoria tritici (St) (setting [16]), > 50 µg/mL; in the assay with Rhizoctonia solani (Rs) (setting [17]) it was 2 µg/mL (≈ 3.41 µM); in the assay with Rhizoctonia solani (Rs) (setting [18]) it was 10 µg/mL (≈ 17 µM). For the same compound, the IC50 at human (hACC2) (Table 2a) is 5 to 10 nM; against human (hACC2) (Table 2b, additional results), 5 to 10 nM; at fungal (fACC2) (Table 2a), 1 to 5 nM; on fungal (fACC2) (Table 2b, additional results), 1 to 5 nM.
As for `COc1ccc(F)cc1[C@H](Cn1c(=O)n(C(C)(C)C(=O)NC(C)C)c(=O)c2c(C)c(-n3nccn3)sc21)OC1CCC(=O)CC1` [Compound I-32, (R)-2-(1-(2-(5-fluoro-2-methoxyphenyl)-2-((4-oxocyclo-hexyl)oxy)ethyl)-5-methyl-2,4-dioxo-6-(2H-1,2,3-triazol-2-yl)-1,4-dihydro-thieno[2,3-d]pyrimidin-3(2H)-yl)-N-isopropyl-2-methylpropanamide], the MIC in the assay with C. albicans (read-out: MIC, C. albicans ATCC 90028, Table 3a, 3 replicates, MIC recorded at 48 h) fell in the range of 0.06 to 0.24 µg/mL (≈ 0.0936 to 0.375 µM); with C. albicans (read-out: MIC, C. albicans ATCC 90028, Table 3b (additional results), 3 replicates, MIC recorded at 48 h) it was 0.06 to 0.249 µg/mL (≈ 0.0936 to 0.389 µM); with C. parapsilosis (read-out: MIC, C. parapsilosis ATCC 22019, Table 3a, 3 replicates, MIC recorded at 48 h) it was 0.25 to 1 µg/mL (≈ 0.39 to 1.56 µM); with C. parapsilosis (read-out: MIC, C. parapsilosis ATCC 22019, Table 3b (additional results), 3 replicates, MIC recorded at 48 h), 0.25 to 1 µg/mL (≈ 0.39 to 1.56 µM). The IC90 with Botrtyis cinerea (Bc) (read-out: Concentration at 90% Inhibition Bc, Botrtyis cinerea, growth inhibition at 48 hours vs 2% DMSO control) is 0.08 µg/mL (≈ 0.125 µM); in the assay with Botrtyis cinerea (Bc) (read-out: Concentration at 90% Inhibition Bc, Botrtyis cinerea, growth inhibition vs 2% DMSO control at 48 hours) it was 0.08 µg/mL (≈ 0.125 µM); in the assay with Diplodia maydis (Dm) (read-out: Concentration at 90% Inhibition Dm, Diplodia maydis, growth inhibition at 48 hours vs 2% DMSO control) it was 0.08 µg/mL (≈ 0.125 µM); with Diplodia maydis (Dm) (read-out: Concentration at 90% Inhibition Dm, Diplodia maydis, growth inhibition vs 2% DMSO control at 48 hours), 0.08 µg/mL (≈ 0.125 µM); in assay [1] (read-out: Concentration at 90% Inhibition Cg, Collectotrichum graminicola, growth inhibition at 48 hours vs 2% DMSO control), 2 µg/mL (≈ 3.12 µM); in assay [1] (read-out: Concentration at 90% Inhibition Cg, Collectotrichum graminicola, growth inhibition vs 2% DMSO control at 48 hours), 2 µg/mL (≈ 3.12 µM). The IC90 in assay [2] (read-out: Concentration at 90% Inhibition Pc, Phytophthora capsici, growth inhibition at 48 hours vs 2% DMSO control) was > 50 µg/mL; in assay [2] (read-out: Concentration at 90% Inhibition Pc, Phytophthora capsici, growth inhibition vs 2% DMSO control at 48 hours) it was > 50 µg/mL; with Septoria tritici (St) (read-out: Concentration at 90% Inhibition St, Septoria tritici, growth inhibition at 48 hours vs 2% DMSO control), > 50 µg/mL; in the assay on Septoria tritici (St) (read-out: Concentration at 90% Inhibition St, Septoria tritici, growth inhibition vs 2% DMSO control at 48 hours), > 50 µg/mL; with Rhizoctonia solani (Rs) (read-out: Concentration at 90% Inhibition Rs, Rhizoctonia solani, mycelial plugs, growth inhibition at 48 hours vs 2% DMSO control), 0.08 µg/mL (≈ 0.125 µM); with Rhizoctonia solani (Rs) (read-out: Concentration at 90% Inhibition Rs, Rhizoctonia solani, mycelial plugs, growth inhibition vs 2% DMSO control at 48 hours) it was 0.08 µg/mL (≈ 0.125 µM). The IC50 was in the range of 5 to 10 nM at human (hACC2) (Table 2a) and 5 to 10 nM against human (hACC2) (Table 2b, additional results).
`COc1ccc(F)cc1[C@H](Cn1c(=O)n(C(C)(C)C(=O)N2CCCC2)c(=O)c2c(C)c(-n3nccn3)sc21)OC1CCC(=O)CC1` [Compound I-33, (R)-1-(2-(5-fluoro-2-methoxyphenyl)-2-((4-oxocyclo-hexyl)oxy)ethyl)-5-methyl-3-(2-methyl-1-oxo-1-(pyrrolidin-1-yl)propan-2-yl)-6-(2H-1,2,3-triazol-2-yl)thieno[2,3-d]pyrimidine-2,4(1H,3H)-dione]: the minimum inhibitory concentration (MIC) with C. albicans (setting [3]) lay within 0.25 to 1 µg/mL (≈ 0.383 to 1.53 µM); in the assay with C. albicans (setting [4]), 0.25 to 1 µg/mL (≈ 0.383 to 1.53 µM); in the assay with C. parapsilosis (setting [13]), 0.25 to 1 µg/mL (≈ 0.383 to 1.53 µM); with C. parapsilosis (setting [14]) it was 1.01 to 2 µg/mL (≈ 1.55 to 3.06 µM). The IC90 (in the assay on Botrtyis cinerea (Bc) (setting [5]); with Botrtyis cinerea (Bc) (setting [6]); with Diplodia maydis (Dm) (setting [7]); in the assay on Diplodia maydis (Dm) (setting [8]); in assay [1] (setting [9]); in assay [1] (setting [10])) was 0.4 µg/mL (≈ 0.613 µM) in each case. In addition, the IC90 in [2] (setting [11]) was > 50 µg/mL; in assay [2] (setting [12]), > 50 µg/mL; in the assay on Septoria tritici (St) (setting [15]), > 50 µg/mL; in the assay with Septoria tritici (St) (setting [16]), > 50 µg/mL; in the assay on Rhizoctonia solani (Rs) (setting [17]), 0.4 µg/mL (≈ 0.613 µM); in the assay with Rhizoctonia solani (Rs) (setting [18]), 0.4 µg/mL (≈ 0.613 µM). Besides, the IC50 against human (hACC2) (Table 2a) is 10 to 40 nM; against human (hACC2) (Table 2b, additional results) it was 10 to 40 nM.
